Source: PMC6872814, “Functional interactions between nitrite reductase and nitric oxide reductase from Paracoccus denitrificans” (Scientific Reports, 2019)

Target: T1, cNOR (c-type nitric oxide reductase, NorB and NorC) (Paracoccus denitrificans, UniProt A1B4X6+Q51662)
T1 construct: gene Pden_2483; NorBC two-subunit complex, plasmid pNOREX in E. coli JM109 with pEC86, DDM-solubilised and purified; reconstituted in liposomes for the Km
T1 sequence (A1B4X6 1-462): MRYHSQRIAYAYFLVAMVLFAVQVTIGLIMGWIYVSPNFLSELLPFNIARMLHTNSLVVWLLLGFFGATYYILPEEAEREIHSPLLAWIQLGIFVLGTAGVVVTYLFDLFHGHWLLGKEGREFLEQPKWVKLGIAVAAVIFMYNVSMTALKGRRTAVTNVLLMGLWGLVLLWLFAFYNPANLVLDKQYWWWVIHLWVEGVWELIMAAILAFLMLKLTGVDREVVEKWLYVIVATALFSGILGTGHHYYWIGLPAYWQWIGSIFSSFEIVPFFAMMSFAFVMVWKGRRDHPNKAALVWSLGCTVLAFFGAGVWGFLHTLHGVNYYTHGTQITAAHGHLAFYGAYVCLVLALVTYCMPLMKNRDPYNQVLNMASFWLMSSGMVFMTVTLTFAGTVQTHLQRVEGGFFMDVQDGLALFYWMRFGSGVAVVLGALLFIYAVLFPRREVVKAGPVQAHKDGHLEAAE
T1 sequence (Q51662 2-150): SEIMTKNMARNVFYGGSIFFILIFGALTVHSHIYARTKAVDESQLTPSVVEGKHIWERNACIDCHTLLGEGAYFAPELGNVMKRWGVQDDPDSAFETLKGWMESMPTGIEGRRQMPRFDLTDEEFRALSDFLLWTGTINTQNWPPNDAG
Assay: Clark-type NO electrode, inhibition of NO reduction, data not shown
Format: biochemical
Settings: inhibitor at high (mM) concentrations; 50 mM HEPES pH 7.0, 50 mM KCl

O=NO [nitrite]
Clark-type NO electrode, inhibition of NO reduction, data not shown: For nitrite, we see that it can inhibit cNOR activity, but only at high (mM)
